From ChEMBL document CHEMBL3885861, “Open TG-GATES”

Organism: Rattus norvegicus
Assay: Open TG-GATES - Regimen: Daily Repeat
Format: toxicity, organism-based, Sprague-Dawley
Design: regimen Daily Repeat, gender Male, age 6 weeks
Settings: in vivo, po, 300 mg/kg, […], route gavage, dose level Low; for KIDNEY_L / KIDNEY_R / KIDNEY_TOTAL: tissue Kidney; for LIVER: tissue Liver; for A/G / ALP / ALT / AST / BUN / CRE / Ca / Cl / DBIL / GLC / IP / K / LDH / Na / PL / RALB / TBIL / TC / TG / TP / gamma-GTP: tissue Plasma

## COc1ccc(O)c(C(C)(C)C)c1.COc1ccc(O)cc1C(C)(C)C [BUTYLATED HYDROXYANISOLE]
Tissue Blood, time 28 day
  Lym: 75.9%
  MCH: 19.7 pg
  MCHC: 36%
  MCV: 54.7 fL
  Mono: 1.7%
  Neu: 20.7%
  PT: 12.1 s
  Plat: 114.8 x10_4/uL
  RBC: 753.2 x10_4/ul
  Ret: 2.2%
  WBC: 131.8 x10_2/uL
Time 7 day
  KIDNEY_L: 1 g
  KIDNEY_R: 1 g
  KIDNEY_TOTAL: 2.1 g
  LIVER: 13.6 g
  A/G: 0.8
  ALP: 1426 IU/L
  ALT: 33.8 IU/L
  AST: 59.8 IU/L
  BUN: 15.2 mg/dL
  CRE: 0.2 mg/dL
  Ca: 11.3 mg/dL
  Cl: 105 meq/L
  DBIL: 0.018 mg/dL
  GLC: 176 mg/dL
  IP: 7.2 mg/dL
  K: 3.9 meq/L
  LDH: 61.2 IU/L
  Na: 142.8 meq/L
  PL: 163 mg/dL
  RALB: 2.7 g/dL
  TBIL: 0.054 mg/dL
  TC: 91 mg/dL
  TG: 100.2 mg/dL
  TP: 6.1 g/dL
  gamma-GTP: 1 IU/L
Time 14 day
  KIDNEY_L: 1.1 g
  KIDNEY_R: 1.1 g
  KIDNEY_TOTAL: 2.2 g
  LIVER: 15.1 g
  A/G: 0.8
  ALP: 1317.4 IU/L
  ALT: 34.6 IU/L
  AST: 58.6 IU/L
  BUN: 15.8 mg/dL
  CRE: 0.2 mg/dL
  Ca: 10.9 mg/dL
  Cl: 106.6 meq/L
  DBIL: 0.012 mg/dL
  GLC: 187 mg/dL
  IP: 6.5 mg/dL
  K: 3.5 meq/L
  LDH: 49.6 IU/L
  Na: 144.4 meq/L
  PL: 156.6 mg/dL
  RALB: 2.8 g/dL
  TBIL: 0.046 mg/dL
  TC: 88.2 mg/dL
  TG: 88.8 mg/dL
  TP: 6.3 g/dL
  gamma-GTP: 1.4 IU/L
Time 28 day
  KIDNEY_L: 1.4 g
  KIDNEY_R: 1.3 g
  KIDNEY_TOTAL: 2.7 g
  LIVER: 18.5 g
  A/G: 0.7
  ALP: 844.2 IU/L
  ALT: 32.8 IU/L
  AST: 52.6 IU/L
  BUN: 16.2 mg/dL
  CRE: 0.3 mg/dL
  Ca: 11 mg/dL
  Cl: 103.8 meq/L
  DBIL: 0.012 mg/dL
  GLC: 189.6 mg/dL
  IP: 6.1 mg/dL
  K: 3.5 meq/L
  LDH: 53.6 IU/L
  Na: 144.4 meq/L
  PL: 167.2 mg/dL
  RALB: 2.7 g/dL
  TBIL: 0.056 mg/dL
  TC: 91.4 mg/dL
  TG: 132 mg/dL
  TP: 6.5 g/dL
  gamma-GTP: 1.4 IU/L
